Experimental data taken from US20250092051A1, “NLRP3 MODULATORS AND USE THEREOF” (Bioentropy Inc., priority 2023, published 2025).

Experiments:
[1] = target: T1, NLRP3 (Homo sapiens, UniProt Q96P20); assay: THP-1 pyroptosis assay (caspase-1 p20 in supernatant by Western blot); type: cell-based; conditions: PMA-differentiated THP-1, LPS 50 ng/ml 4 h, compound 30 min, nigericin 15 μM 45 min; caspase-1 p20 Western blot
T1 construct: host or cells: THP-1 cells, PMA-differentiated, LPS-primed, nigericin-stimulated
T1 sequence (Q96P20 whole entry): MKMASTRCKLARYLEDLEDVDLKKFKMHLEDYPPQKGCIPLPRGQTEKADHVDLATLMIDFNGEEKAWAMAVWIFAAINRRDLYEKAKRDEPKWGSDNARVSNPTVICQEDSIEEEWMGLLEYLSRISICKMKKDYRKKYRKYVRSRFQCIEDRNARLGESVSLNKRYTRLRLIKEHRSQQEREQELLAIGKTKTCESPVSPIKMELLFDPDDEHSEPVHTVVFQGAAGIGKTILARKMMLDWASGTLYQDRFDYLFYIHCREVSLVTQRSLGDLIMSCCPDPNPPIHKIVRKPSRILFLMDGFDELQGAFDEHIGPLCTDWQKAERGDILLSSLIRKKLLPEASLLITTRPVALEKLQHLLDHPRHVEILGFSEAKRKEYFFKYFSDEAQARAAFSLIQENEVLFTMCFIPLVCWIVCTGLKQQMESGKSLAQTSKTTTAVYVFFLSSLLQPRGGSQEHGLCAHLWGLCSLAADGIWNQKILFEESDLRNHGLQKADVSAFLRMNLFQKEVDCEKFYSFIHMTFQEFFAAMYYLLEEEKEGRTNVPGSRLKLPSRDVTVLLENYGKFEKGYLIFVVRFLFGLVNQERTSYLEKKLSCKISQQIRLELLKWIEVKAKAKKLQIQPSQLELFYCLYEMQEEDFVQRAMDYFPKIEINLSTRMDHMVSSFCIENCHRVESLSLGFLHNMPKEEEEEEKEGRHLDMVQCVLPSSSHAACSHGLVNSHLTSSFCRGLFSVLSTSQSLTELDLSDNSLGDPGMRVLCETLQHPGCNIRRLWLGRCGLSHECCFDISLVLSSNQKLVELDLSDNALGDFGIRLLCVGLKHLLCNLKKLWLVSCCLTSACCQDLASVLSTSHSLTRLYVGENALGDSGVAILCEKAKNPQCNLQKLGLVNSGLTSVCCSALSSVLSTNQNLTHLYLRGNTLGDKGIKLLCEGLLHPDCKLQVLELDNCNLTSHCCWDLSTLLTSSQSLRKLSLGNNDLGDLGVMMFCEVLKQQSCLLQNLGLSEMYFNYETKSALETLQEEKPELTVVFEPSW
Protocol: (§1) THP-1 cell lines (procell, #CL-0233) were cultured in RPMI-1640 medium (Gibco, #C11875500BT) supplemented with 10% FBS, 100 U/ml penicillin, 100 µg/ml streptomycin and 0.05 mM β-mercaptoethanol (BME). THP-1 cells were seeded at 5×10^5/ml in 12 well plates and were differentiated into macrophages by incubation with 5 ng/ml PMA (Sigma, #P8139-1MG) for 48 h. Cells were washed with PBS and then were primed with 50 ng/ml LPS (InvivoGen, #tlrl-b5lps) for 4 h. Medium were removed and replaced with serum free medium (SFM) containing compound (2.5-40 nM) or MCC950 (5-25 nM) for 30 min. Cells were then stimulated with 15 μM nigericin (Invivogen, #tlrl-nig) for 45 min.
The protein of supernatants was concentrated using StrataClean™ resin (Agilent, #400714) according to the manufacturer's instructions. The protein samples were resolved on 4-20% SDS-PAGE gels and transferred onto 0.45 PVDF membrane (Immobilon-P #IPVH00010) using a wet transfer system. Membranes were blocked in 5% (w/v) dried milk in PBST for 1 h at room temperature. Membranes were incubated with primary antibody (Adipogen, #AG-20B-0048B-C100) diluted in Primary Antibody Dilution Buffer (Beyotime, #P0023A-100 ml) according to the manufacturer's instructions, followed by incubation with the IgG(H+L) (HRP-labeled Goat Anti-Mouse IgG(H+L) (Beyotime, #A0216) diluted in 1% (w/v) dried milk in PBST for 1 h. The protein expression was visualized using Super ECL Detection Reagent (YEASEN,
FIG. 1. Results of Western blots for THP-1 cell-based pyroptosis assay using the cleavage of caspase-1 into p20 as reporting indication of NLRP3 inhibition. […] Molecule N-027 (Compound #51) and N-027B (Compound #53) inhibits NLRP3 inflammasome activation in macrophages, N-027 IC50 (caspase-1)<5 nM; N-027B IC50 (caspase-1) 1 nM. THP-1 cells were primed for 4 h with LPS (50 ng/ml), and then LPS-primed THP-1 cells were incubated with N-027 or N-027B for 30 min and then stimulated with nigericin (15 μM) for 45 min. Caspase-1 (p20) in supernatants were measured by Western blots.

[2] = target: T1, NLRP3; assay: IL-1β assay (ELISA of THP-1 culture supernatant); type: cell-based; conditions: PMA-differentiated THP-1, LPS 50 ng/ml 4 h, compound 30 min, nigericin 15 μM 45 min; Human IL-1β ELISA
Protocol: as §1
The culture supernatant of THP-1 was removed and analyzed using Human IL-1β ELISA Kit according to the manufacturer's instructions (Beyotime, #PI305). The IL-1β concentration was measured at 450 nm wavelength of absorbance and calculated.

SMILES	IC50 [1] [nM]	IC50 [2] [nM]
Cc1cc(C2CC2)cc(C)c1-n1nc2nc(N3CCOCC3)[nH]c(=S)c2n1 [Compound 4, 2-(4-cyclopropyl-2,6-dimethylphenyl)-5-morpholino-2,6-dihydro-7H-[1,2,3]triazolo[4,5-d]pyrimidine-7-thione]	> 1000	> 1000
O=c1[nH]c(N2CCCC2)nc2nn(-c3ccc(Br)cc3C(F)(F)F)nc12 [Compound 75, 2-(4-bromo-2-(trifluoromethyl)phenyl)-5-(pyrrolidin-1-yl)-2,6-dihydro-7H-[1,2,3]triazolo[4,5-d]pyrimidin-7-one]	2.5	< 10
O=c1[nH]c(N2CCCC2)nc2nn(-c3ccc(C4CC4)cc3C(F)(F)F)nc12 [Compound 77, 2-(4-cyclopropyl-2-(trifluoromethyl)phenyl)-5-(pyrrolidin-1-yl)-2,6-dihydro-7H-[1,2,3]triazolo[4,5-d]pyrimidin-7-one]	< 10	< 10
CCN(CC)c1nc2nn(-c3c(C)cc(Br)cc3C)nc2c(=O)[nH]1 [Compound 95, 2-(4-bromo-2,6-dimethylphenyl)-5-(diethylamino)-2,6-dihydro-7H-[1,2,3]triazolo[4,5-d]pyrimidin-7-one]	< 6.2	< 6.2
CCN1CCN(c2nc3nn(-c4ccc(C5CC5)cc4C(F)(F)F)nc3c(=O)[nH]2)CC1 [Compound 100, 2-(4-cyclopropyl-2-(trifluoromethyl)phenyl)-5-(4-ethylpiperazin-1-yl)-2,6-dihydro-7H-[1,2,3]triazolo[4,5-d]pyrimidin-7-one]	< 100	< 200
Cc1cc(C2CC2)cc(C)c1-n1nc2nc(N(C)CCN(C)C)[nH]c(=O)c2n1 [Compound 101, 2-(4-cyclopropyl-2,6-dimethylphenyl)-5-((2-(dimethylamino)ethyl)(methyl)amino)-2,6-dihydro-7H-[1,2,3]triazolo[4,5-d]pyrimidin-7-one]	< 10	< 100
O=c1[nH]c(N2CCOCC2)nc2nn(-c3c(F)cc(C4CC4)cc3Cl)nc12 [Compound 103, 2-(2-chloro-4-cyclopropyl-6-fluorophenyl)-5-morpholino-2,6-dihydro-7H-[1,2,3]triazolo[4,5-d]pyrimidin-7-one]	< 10	< 10
Cc1cc(C2CC2)cc(F)c1-n1nc2nc(N3CCOCC3)[nH]c(=O)c2n1 [Compound 104, 2-(4-cyclopropyl-2-fluoro-6-methylphenyl)-5-morpholino-2,6-dihydro-7H-[1,2,3]triazolo[4,5-d]pyrimidin-7-one]	< 6	< 10
O=c1[nH]c(N2CCOCC2)nc2nn(-c3c(F)cc(C4CC4)cc3C(F)(F)F)nc12 [Compound 105, 2-(4-cyclopropyl-2-fluoro-6-(trifluoromethyl)phenyl)-5-morpholino-2,6-dihydro-7H-[1,2,3]triazolo[4,5-d]pyrimidin-7-one]	< 6	< 10
CCN1CCN(c2nc3nn(-c4c(C)cc(C5CC5)cc4F)nc3c(=O)[nH]2)CC1 [Compound 106, 2-(4-cyclopropyl-2-fluoro-6-methylphenyl)-5-(4-ethylpiperazin-1-yl)-2,6-dihydro-7H-[1,2,3]triazolo[4,5-d]pyrimidin-7-one]	> 100	> 100
Cc1cc(C2CC2)cc(C)c1-n1nc2nc(N3CCOC[C@H]3C)[nH]c(=O)c2n1 [Compound 107, (R)-2-(4-cyclopropyl-2,6-dimethylphenyl)-5-(3-methylmorpholino)-2H-[1,2,3]triazolo[4,5-d]pyrimidin-7(6H)-one]	–	< 33
Cc1cc(C2CC2)cc(C)c1-n1nc2nc(N3CCOCC3)n(C)c(=O)c2n1 [Compound 108, 2-(4-cyclopropyl-2,6-dimethyl-phenyl)-6-methyl-5-morpholino-triazolo[4,5-d]pyrimidin-7-one]	–	< 500
COc1nc(N2CCOCC2)nc2nn(-c3c(C)cc(C4CC4)cc3C)nc12 [Compound 109, 4-[2-(4-cyclopropyl-2,6-dimethyl-phenyl)-7-methoxy-triazolo[4,5-d]pyrimidin-5-yl]morpholine]	–	> 10000

Now from value to compound:

IC50 [1] [nM]	IC50 [2] [nM]	SMILES
< 2.5	< 20	Cc1cc(Br)cc(C)c1-n1nc2nc(N3CCOCC3)[nH]c(=O)c2n1 [Compound 1, 2-(4-bromo-2,6-dimethylphenyl)-5-morpholino-2,6-dihydro-7H-[1,2,3]triazolo[4,5-d]pyrimidin-7-one]
< 1600	< 1600	Cc1cc(Br)cc(C)c1-n1nc2nc(N3CCOCC3)[nH]c(=S)c2n1 [Compound 2, 2-(4-bromo-2,6-dimethylphenyl)-5-morpholino-2,6-dihydro-7H-[1,2,3]triazolo[4,5-d]pyrimidine-7-thione]
< 5	< 15	Cc1cc(C2CC2)cc(C)c1-n1nc2nc(N3CCOCC3)[nH]c(=O)c2n1 [Compound 3, 2-(4-cyclopropyl-2,6-dimethylphenyl)-5-morpholino-2,6-dihydro-7H-[1,2,3]triazolo[4,5-d]pyrimidin-7-one]
< 5	< 5	Cc1cc(Br)cc(C)c1-n1nc2nc(N3CCCC3)[nH]c(=O)c2n1 [Compound 51, 2-(4-bromo-2,6-dimethylphenyl)-5-(pyrrolidin-1-yl)-2,6-dihydro-7H-[1,2,3]triazolo[4,5-d]pyrimidin-7-one]
< 50	< 500	Cc1cc(Br)cc(C)c1-n1nc2nc(N3CCCC3)[nH]c(=S)c2n1 [Compound 52, 2-(4-bromo-2,6-dimethylphenyl)-5-(pyrrolidin-1-yl)-2,6-dihydro-7H-[1,2,3]triazolo[4,5-d]pyrimidine-7-thione]
≤ 1	< 5	Cc1cc(C2CC2)cc(C)c1-n1nc2nc(N3CCCC3)[nH]c(=O)c2n1 [Compound 53, 2-(4-cyclopropyl-2,6-dimethylphenyl)-5-(pyrrolidin-1-yl)-2,6-dihydro-7H-[1,2,3]triazolo[4,5-d]pyrimidin-7-one]
< 100	< 100	Cc1cc(C2CC2)cc(C)c1-n1nc2nc(N3CCCC3)[nH]c(=S)c2n1 [Compound 54, 2-(4-cyclopropyl-2,6-dimethylphenyl)-5-(pyrrolidin-1-yl)-2,6-dihydro-7H-[1,2,3]triazolo[4,5-d]pyrimidine-7-thione]
10	–	Cc1cc(Cl)cc(C)c1-n1nc2nc(N3CCCC3)[nH]c(=O)c2n1 [Compound 63, 2-(4-chloro-2,6-dimethylphenyl)-5-(pyrrolidin-1-yl)-2,6-dihydro-7H-[1,2,3]triazolo[4,5-d]pyrimidin-7-one]
7.5	< 15	O=c1[nH]c(N2CCCC2)nc2nn(-c3c(Cl)cc(Br)cc3Cl)nc12 [Compound 91, 2-(4-bromo-2,6-dichlorophenyl)-5-(pyrrolidin-1-yl)-2,6-dihydro-7H-[1,2,3]triazolo[4,5-d]pyrimidin-7-one]
5	< 20	O=c1[nH]c(N2CCCC2)nc2nn(-c3ccc(Br)cc3Cl)nc12 [Compound 97, 2-(4-bromo-2-chlorophenyl)-5-(pyrrolidin-1-yl)-2,6-dihydro-7H-[1,2,3]triazolo[4,5-d]pyrimidin-7-one]
7.5	< 15	O=c1[nH]c(N2CCCC2)nc2nn(-c3c(F)cc(Br)cc3Cl)nc12 [Compound 98, 2-(4-bromo-2-chloro-6-fluorophenyl)-5-(pyrrolidin-1-yl)-2,6-dihydro-7H-[1,2,3]triazolo[4,5-d]pyrimidin-7-one]
< 10	< 20	O=c1[nH]c(N2CCCC2)nc2nn(-c3c(F)cc(Br)cc3F)nc12 [Compound 99, 2-(4-bromo-2,6-difluorophenyl)-5-(pyrrolidin-1-yl)-2,6-dihydro-7H-[1,2,3]triazolo[4,5-d]pyrimidin-7-one]
< 40	> 100	CCN1CCN(c2nc3nn(-c4c(C)cc(C5CC5)cc4C)nc3c(=O)[nH]2)CC1 [Compound 102, 2-(4-cyclopropyl-2,6-dimethylphenyl)-5-(4-ethylpiperazin-1-yl)-2,6-dihydro-7H-[1,2,3]triazolo[4,5-d]pyrimidin-7-one]
